Results: patent US20080255206A1, “Rxr Agonists and Antagonists, Alone or in Combination with Ppar Ligands, in the Treatment of Metabolic and Cardiovascular Diseases” (priority 2005, published 2008)

Assays:
[1] = system: db/db mice; assay: Investigation with db/db mice (blood glucose and lipids); assay type: in vivo, mouse; conditions: for Glucose Diff. D o − D 12 / HDL-cholesterol Diff. D o − D 12 / Total cholesterol Diff. D o − D 12 / Triglycerides Diff. D o − D 12: change day 0 to day 12; for Glucose D o / HDL-cholesterol D o / Total cholesterol D o / Triglycerides D o: day 0; for Glucose D 12 / HDL-cholesterol D 12 / Total cholesterol D 12 / Triglycerides D 12: day 12; for Glucose D-4 / HDL-cholesterol D-4 / Total cholesterol D-4 / Triglycerides D-4: day −4
Procedure: The following compounds are investigated and compared to placebo (vehicle control).
The mentioned 3 compounds are tested in db/db mice during a time when diabetes is in a rapid developing stage. […] Each dosage group and the vehicle group comprise 7 mice. The suspensions used are prepared with peroxide free arachis oil as vehicle. Blood samples are collected by retro-orbital bleeding at days −4, 0 and 12. The blood levels of glucose, triglycerides, total cholesterol, and HDL-cholesterol are determined.
For evaluation of efficacy, the difference between the values of glucose, triglycerides, total cholesterol and HDL-cholesterol changing from day 0 to day 12 is determined and expressed in %. […] Overall evaluation consists in determining the efficacy of the compounds by calculating the whole extent of the effect expressed in %. […] This value is considered as a valuable indicator for the efficacy of the investigated compounds administered in a tolerated dose.

[2] = system: synovial fibroblasts; assay: In vitro cartilage degradation by synovial fibroblasts (sGAG release); assay type: cell-based, human; conditions: for sGAG release: 14 days
Procedure: Furthermore, it is determined whether this is accompanied by a modulation in the accumulation of the mRNA encoding catabolic enzyme matrix metalloproteinase-1 (MMP-1), responsible for degradation of human cartilage and consequently joint destruction in man. Adherent synovial fluid cells taken from a patient with RA are used after 5 passages in an in vitro assay for cartilage destruction. The cells incubated in flasks coated with 0.1% (0.1 g/100 ml) human cartilage powder are fixed using Matrigel® (BD Biosciences, Becton, Dickinson & Co., Boston, Mass., USA). The release of sulphated glycosaminoglycan (sGAG) into the culture medium is monitored by a commercial colorimetric test according to a method described by S. Björnsson, see Anal. […] This is conducted in the presence or absence of IL-1β (100 pg/ml).

[3] = system: MMP-1 mRNA; assay: MMP-1 mRNA in synovial fibroblasts (real time PCR); assay type: cell-based, human
Procedure: Furthermore, it is determined whether this is accompanied by a modulation in the accumulation of the mRNA encoding catabolic enzyme matrix metalloproteinase-1 (MMP-1), responsible for degradation of human cartilage and consequently joint destruction in man. Adherent synovial fluid cells taken from a patient with RA are used after 5 passages in an in vitro assay for cartilage destruction. The cells incubated in flasks coated with 0.1% (0.1 g/100 ml) human cartilage powder are fixed using Matrigel® (BD Biosciences, Becton, Dickinson & Co., Boston, Mass., USA).
This is conducted in the presence or absence of IL-1β (100 pg/ml).

[4] = 30 mg/kg/day group versus vehicle group

CCCCOc1c(\C(C)=C/C=C/C(C)=C/C(=O)O)cc(C(C)(C)C)cc1C(C)(C)C [Compound 15, (2E,4E,6Z)-7-[2-butoxy-3,5-bis(1,1-dimethylethyl)phenyl]-3-methyl-2,4,6-octatrienoic acid]
Glucose Diff. D o − D 12 ([1]; 0.3 mg/kg/day i.p.): +20.8%
HDL-cholesterol Diff. D o − D 12 ([1]; 0.3 mg/kg/day i.p.): −5.0%
Total cholesterol Diff. D o − D 12 ([1]; 0.3 mg/kg/day i.p.): −5.7%
Triglycerides Diff. D o − D 12 ([1]; 0.3 mg/kg/day i.p.): −0.6%
Glucose D o ([1]; 0.3 mg/kg/day i.p.): 226 mg/dL
HDL-cholesterol D o ([1]; 0.3 mg/kg/day i.p.): 3.00 mmol/L
Total cholesterol D o ([1]; 0.3 mg/kg/day i.p.): 4.05 mmol/L
Triglycerides D o ([1]; 0.3 mg/kg/day i.p.): 1.78 mmol/L
Glucose D 12 ([1]; 0.3 mg/kg/day i.p.): 273 mg/dL
HDL-cholesterol D 12 ([1]; 0.3 mg/kg/day i.p.): 2.85 mmol/L
Total cholesterol D 12 ([1]; 0.3 mg/kg/day i.p.): 3.82 mmol/L
Triglycerides D 12 ([1]; 0.3 mg/kg/day i.p.): 1.77 mmol/L
Glucose D-4 ([1]; 0.3 mg/kg/day i.p.): 153 mg/dL
HDL-cholesterol D-4 ([1]; 0.3 mg/kg/day i.p.): 2.43 mmol/L
Total cholesterol D-4 ([1]; 0.3 mg/kg/day i.p.): 4.52 mmol/L
Triglycerides D-4 ([1]; 0.3 mg/kg/day i.p.): 2.28 mmol/L
Glucose levels (in words) ([1]; 3 mg/kg/day): markedly lowers glucose levels
HDL-cholesterol levels (in words) ([1]; 3 mg/kg/day): markedly raised
Triglyceride levels (in words) ([1]; 3 mg/kg/day): markedly decreasing
Glucose Diff. D o − D 12 ([1]; 3.0 mg/kg/day i.p.): +4.1%
HDL-cholesterol Diff. D o − D 12 ([1]; 3.0 mg/kg/day i.p.): +18.4%
Total cholesterol Diff. D o − D 12 ([1]; 3.0 mg/kg/day i.p.): −11.1%
Triglycerides Diff. D o − D 12 ([1]; 3.0 mg/kg/day i.p.): −44.9%
Glucose D o ([1]; 3.0 mg/kg/day i.p.): 270 mg/dL
HDL-cholesterol D o ([1]; 3.0 mg/kg/day i.p.): 2.88 mmol/L
Total cholesterol D o ([1]; 3.0 mg/kg/day i.p.): 3.95 mmol/L
Triglycerides D o ([1]; 3.0 mg/kg/day i.p.): 2.16 mmol/L
Glucose D 12 ([1]; 3.0 mg/kg/day i.p.): 281 mg/dL
HDL-cholesterol D 12 ([1]; 3.0 mg/kg/day i.p.): 3.41 mmol/L
Total cholesterol D 12 ([1]; 3.0 mg/kg/day i.p.): 4.39 mmol/L
Triglycerides D 12 ([1]; 3.0 mg/kg/day i.p.): 1.19 mmol/L
Glucose D-4 ([1]; 3.0 mg/kg/day i.p.): 192 mg/dL
HDL-cholesterol D-4 ([1]; 3.0 mg/kg/day i.p.): 2.47 mmol/L
Total cholesterol D-4 ([1]; 3.0 mg/kg/day i.p.): 4.62 mmol/L
Triglycerides D-4 ([1]; 3.0 mg/kg/day i.p.): 2.15 mmol/L
Glucose levels (in words) ([1]; 30 mg/kg/day): decrease markedly
HDL-cholesterol levels (in words) ([1]; 30 mg/kg/day): markedly increased
Total cholesterol levels (in words) ([1]; 30 mg/kg/day): slightly higher
Triglyceride levels (in words) ([1]; 30 mg/kg/day): very strongly
Overall extent of the effect on blood levels of Glucose [1, 4]: −58.0%
Overall extent of the effect on blood levels of HDL-cholesterol [1, 4]: +14.2%
Overall extent of the effect on blood levels of Total cholesterol [1, 4]: +14.9%
Overall extent of the effect on blood levels of Triglycerides [1, 4]: −73.0%
Glucose Diff. D o − D 12 ([1]; 30 mg/kg/day i.p.): −8.8%
HDL-cholesterol Diff. D o − D 12 ([1]; 30 mg/kg/day i.p.): +10.4%
Total cholesterol Diff. D o − D 12 ([1]; 30 mg/kg/day i.p.): +6.1%
Triglycerides Diff. D o − D 12 ([1]; 30 mg/kg/day i.p.): −50.9%
Glucose D o ([1]; 30 mg/kg/day i.p.): 294 mg/dL
HDL-cholesterol D o ([1]; 30 mg/kg/day i.p.): 3.07 mmol/L
Total cholesterol D o ([1]; 30 mg/kg/day i.p.): 4.27 mmol/L
Triglycerides D o ([1]; 30 mg/kg/day i.p.): 2.18 mmol/L
Glucose D 12 ([1]; 30 mg/kg/day i.p.): 268 mg/dL
HDL-cholesterol D 12 ([1]; 30 mg/kg/day i.p.): 3.39 mmol/L
Total cholesterol D 12 ([1]; 30 mg/kg/day i.p.): 4.53 mmol/L
Triglycerides D 12 ([1]; 30 mg/kg/day i.p.): 1.07 mmol/L
Glucose D-4 ([1]; 30 mg/kg/day i.p.): 184 mg/dL
HDL-cholesterol D-4 ([1]; 30 mg/kg/day i.p.): 2.45 mmol/L
Total cholesterol D-4 ([1]; 30 mg/kg/day i.p.): 3.98 mmol/L
Triglycerides D-4 ([1]; 30 mg/kg/day i.p.): 1.85 mmol/L
Effect on cartilage destruction in vitro (in words) ([2]; absence of IL-1β): no effect on the basal activity of synovial fibroblast
sGAG release ([2]; absence of IL-1β, 10^−7 M): 39 µg/mL
sGAG release ([2]; absence of IL-1β, 10^−8 M): 57 µg/mL
Cumulative sGAG ([2]; absence of IL-1β, 10^−8 M, day 7): 44 µg/mL
Cumulative sGAG ([2]; absence of IL-1β, 10^−8 M, day 14): 57 µg/mL
Cumulative sGAG ([2]; absence of IL-1β, 10^−8 M, day 21): 57 µg/mL
Cumulative sGAG ([2]; absence of IL-1β, 10^−8 M, day 28): 39 µg/mL
Cumulative sGAG ([2]; absence of IL-1β, 10^−8 M, day 35): 34 µg/mL
sGAG release ([2]; absence of IL-1β, 10^−9 M): 46 µg/mL
sGAG release ([2]; presence of 100 pg/ml IL-1β, 10^−7 M): 41 µg/mL
sGAG release ([2]; presence of 100 pg/ml IL-1β, 10^−8 M): 89 µg/mL
Cumulative sGAG ([2]; presence of 100 pg/ml IL-1β, 10^−8 M, day 7): 67 µg/mL
Cumulative sGAG ([2]; presence of 100 pg/ml IL-1β, 10^−8 M, day 14): 89 µg/mL
Cumulative sGAG ([2]; presence of 100 pg/ml IL-1β, 10^−8 M, day 21): 89 µg/mL
Cumulative sGAG ([2]; presence of 100 pg/ml IL-1β, 10^−8 M, day 28): 173 µg/mL
Cumulative sGAG ([2]; presence of 100 pg/ml IL-1β, 10^−8 M, day 35): 56 µg/mL
sGAG release ([2]; presence of 100 pg/ml IL-1β, 10^−9 M): 144 µg/mL
Effect on cartilage destruction in vitro (in words) ([2]; presence of IL-1β): markedly inhibits the IL-1β dependent cartilage destruction
MMP-1 mRNA, fold increase of baseline value ([3]; 10^−7 M, after 24 hours): 0.68 relative units
MMP-1 mRNA, fold increase of baseline value ([3]; 10^−8 M, 0 hours): 1 relative units
MMP-1 mRNA, fold increase of baseline value ([3]; 10^−8 M, 2 hours): 1.13 relative units
MMP-1 mRNA, fold increase of baseline value ([3]; 10^−8 M, 6 hours): 0.81 relative units
MMP-1 mRNA, fold increase of baseline value ([3]; 10^−8 M, 12 hours): 1.12 relative units
MMP-1 mRNA, fold increase of baseline value ([3]; 10^−8 M, 24 hours): 0.87 relative units
MMP-1 mRNA, fold increase of baseline value ([3]; 10^−8 M, 48 hours): 0.83 relative units
MMP-1 mRNA, fold increase of baseline value ([3]; 10^−8 M, after 24 hours): 1.12 relative units
MMP-1 mRNA, fold increase of baseline value ([3]; 10^−9 M, after 24 hours): 1.05 relative units
